Patent publication US11485736B2 (KSQ Therapeutics, Inc., priority 2018, dated 2022)
Where two headings read alike, the source gives them in different places.

Legend:
[1] = Liver microsomal stability, human liver microsomes; type: in vitro ADME; conditions: 1 μM compound, NADPH, read-out: t1/2 (min) in HLM
Method: (§1) Certain Compounds of the Disclosure were assessed for ADME metabolic stability in human liver microsomes (HLM) and rat liver microsomes (RLM).
(§2) Samples were prepared by adding 222.5 μL of a master solution (100 mM phosphate buffer and 1 mg/mL liver microsomes (HLM or RLM)) and 25 μL of a 10 mM NADPH solution to incubation plates, which were then warmed for 10 min. Each compound was separately dissolved in DMSO to prepare 10 mM stock solutions, which were then diluted to 100 μM with acetonitrile. A reaction was started by adding 2.5 μL of the 100 μM solution of each compound to separate incubation plates such that the final concentration of for each compound in each plate was 1 μM.
(§3) 25 μL aliquots of each sample were taken at 0.5, 5, 10, 15, 20 and 30 minutes, and the reaction was stopped by adding 5 volumes of cold acetonitrile with IS (100 nM alprazolam, 200 nM caffeine and 100 nM tolbutamide). The samples were then centrifuged at 3,220 G for 30 minutes, and 100 μL of the supernatant fluid was mixed with 100 μL of ultra-pure H2O.
(§4) The samples were then analyzed by LC-MS/MS. Peak areas were determined from extracted ion chromatograms. Slope values (k) were determined by linear regression of the natural logarithm of the remaining percentage of the compound vs. incubation time curve. […] The in vitro half-life (min) was converted into the in vitro intrinsic clearance (in vitro CLint, in μL/min/mg protein) using the following equation: […]

[2] = Liver microsomal stability, rat liver microsomes; type: in vitro ADME; conditions: 1 μM compound, NADPH, read-out: t1/2 (min) in RLM
Method: as §1, §2, §3, §4

[3] = ADME solubility determination at pH 2.0 and pH 7.4; type: physicochemical; conditions: aqueous buffer, thermodynamic from solid, LC-MS/MS
Method: Certain Compounds of the Disclosure were assessed for ADME solubility at pH 2.0 and pH 7.4.
Stock solutions were prepared by adding each compound to DMSO at a concentration of 10 mM. Samples were prepared by adding 50 μL of each stock solution to separate vials. The vials were loaded onto a 96-well rack and dried. 500 μL of Phosphate Buffered Saline (PBS) pH 7.4 or PBS pH 2.0 were added into each vial. The vials were then shaken at 25° C. and 1,100 rpm for 24 hours.
After 24 hours, the vials were centrifuged at 3220 G and 25° C. for 30 minutes. The supernatant fluid was analyzed by LC-MS/MS against a standard of known concentration. The solubility of each sample was then calculated using the equation below:
[formula] where DF is the dilution factor.

[4] = PBS pH 2.0, shaken at 25° C. for 24 hours, read-out: Solubility at pH 2.0
[5] = PBS pH 7.4, shaken at 25° C. for 24 hours, read-out: Solubility at pH 7.4

Row | Compound | half-life at 1 μM [1] [min] | half-life at 1 μM [2] [min] | solubility at 24 h [3, 4] [µM] | solubility at 24 h [3, 5] [µM]
1 | CCn1cc(C(F)(F)F)nc1-c1ccc(Cn2ncc3cnc(-c4c(OC)cnn4C4CCC4)nc32)cc1 [Example 84] | < 25 | < 25 | < 10 | < 10
2 | COc1ncnc(C2(C)CC2)c1-c1ncc2cnn(Cc3ccc(-n4nc(C(F)(F)F)cc4OC)cc3)c2n1 [Example 106] | > 25 | > 25 | < 10 | < 10
3 | COCc1nc2cnc(-c3c(OC)ncnc3C3CC3)nc2n1Cc1ccc(-c2nc(C(F)(F)F)cn2C(C)C)cc1 [Example 207] | < 25 | > 25 | > 10 | > 10
4 | CC(C)c1c(F)cccc1-c1ncc2cnn(Cc3ccc(-c4nc(C(F)(F)F)cn4C)cc3)c2n1 [Example 10, 6-(3-fluoro-2-isopropylphenyl)-1-(4-(1-methyl-4-(trifluoromethyl)-1H-imidazol-2-yl)benzyl)-1H-pyrazolo[3,4-d]pyrimidine] | < 25 | < 25 | < 10 | < 10
5 | CCOc1nn(Cc2ccc(-c3nc(C(F)(F)F)cn3CC)cc2)c2nc(-c3c(OC)ncnc3C3CC3)ncc12 [Example 182] | > 25 | > 25 | < 10 | < 10
6 | COc1cccc(C)c1-c1ncc2cnn(Cc3ccc(-c4nc(C(F)(F)F)cn4C)cc3)c2n1 [Example 5, 6-(2-methoxy-6-methylphenyl)-1-(4-(1-methyl-4-(trifluoromethyl)-1H-imidazol-2-yl)benzyl)-1H-pyrazolo[3,4-d]pyrimidine] | < 25 | < 25 | > 10 | < 10
7 | CCn1cc(C(F)(F)F)nc1-c1ccc([C@@H](C)n2ncc3cnc(-c4c(OC)ncnc4C4CCC4)nc32)cc1 (single isomer, unassigned) [Example 100] | < 25 | < 25 | > 10 | < 10
8 | COc1ncnc(C2CCC2)c1-c1ncc2cnn(Cc3ccc(-c4nc(C(F)(F)F)cn4C)cc3)c2n1 [Example 15] | < 25 | < 25 | > 10 | > 10
9 | COc1ncnc(C2CC2)c1-c1ncc2cnn([C@@H](C)c3ccc(-c4nc(C(F)(F)F)cn4C)cc3)c2n1 (single isomer, unassigned) [Example 92] | < 25 | > 25 | > 10 | > 10
10 | COc1ncnc(C(C)(C)F)c1-c1ncc2cnn(Cc3ccc(-c4nc(C(F)(F)F)cn4C)cc3)c2n1 [Example 110] | < 25 | > 25 | > 10 | > 10
11 | CCn1cc(C(F)(F)F)nc1-c1ccc(Cn2ncc3cnc(-c4c(OC)ncnc4C4CN(C)C4)nc32)cc1 [Example 101] | < 25 | < 25 | > 10 | < 10
12 | CCn1cc(C(F)(F)F)nc1-c1ccc([C@H](C)n2ncc3cnc(-c4c(OC)ncnc4C4CCC4)nc32)cc1 (single isomer, unassigned) [Example 99] | < 25 | < 25 | > 10 | < 10
13 | CCn1cc(C(F)(F)F)nc1-c1ccc([C@@H](C)n2ncc3cnc(-c4c(OC)ncnc4OC)nc32)cc1 [Example 89] | > 25 | > 25 | > 10 | > 10
14 | CCn1cc(C(F)(F)F)nc1-c1ccc(Cn2nc(OC)c3cnc(-c4c(OC)ncnc4C4CC4)nc32)cc1 [Example 176] | > 25 | > 25 | > 10 | < 10
15 | CC(C)c1ncccc1-c1ncc2cnn(Cc3ccc(-c4nc(C(F)(F)F)cn4C)cc3)c2n1 [Example 9, 6-(2-isopropylpyridin-3-yl)-1-(4-(1-methyl-4-(trifluoromethyl)-1H-imidazol-2-yl)benzyl)-1H-pyrazolo[3,4-d]pyrimidine] | < 25 | < 25 | > 10 | > 10
16 | COc1cnn(C2CC2)c1-c1ncc2cnn(Cc3ccc(-c4nc(C(F)(F)F)cn4C)cc3)c2n1 [Example 81] | < 25 | < 25 | < 10 | < 10
17 | Cn1cc(C(F)(F)F)nc1-c1ccc(Cn2ncc3cnc(-c4c(OS(=O)(=O)C(F)(F)F)ncnc4C4CC4)nc32)cc1 [Example 160, 6-Cyclopropyl-5-(1-(4-(1-methyl-4-(trifluoromethyl)-1H-imidazol-2-yl)benzyl)-1H-pyrazolo[3,4-d]pyrimidin-6-yl)pyrimidin-4-yl trifluoromethanesulfonate] | > 25 | > 25 | < 10 | < 10
18 | COc1cccc(C2CC2)c1-c1ncc2cnn(Cc3ccc(-c4nc(C(F)(F)F)cn4C)cc3)c2n1 [Example 11, 6-(2-cyclopropyl-6-methoxyphenyl)-1-(4-(1-methyl-4-(trifluoromethyl)-1H-imidazol-2-yl)benzyl)-1H-pyrazolo[3,4-d]pyrimidine] | < 25 | < 25 | > 10 | > 10
19 | COc1ncnc(C2CC2)c1-c1ncc2cnn(Cc3ccc(-c4nc(C(F)(F)F)c[nH]4)cc3)c2n1 [Example 134, 6-(4-cyclopropyl-6-methoxypyrimidin-5-yl)-1-(4-(4-(trifluoromethyl)-1H-imidazol-2-yl)benzyl)-1H-pyrazolo[3,4-d]pyrimidine] | > 25 | > 25 | < 10 | < 10
20 | COc1ncnc(C2CC2)c1-c1ncc2c(OC)nn([C@@H](C)c3ccc(-c4nc(C(F)(F)F)cn4CCF)cc3)c2n1 [Example 178] | > 25 | > 25 | < 10 | < 10
21 | CCn1cc(C(F)(F)F)nc1-c1ccc(Cn2ncc3c(OC)nc(-c4c(OC)ncnc4C4CC4)nc32)cc1 [Example 52] | > 25 | < 25 | < 10 | < 10
22 | Cc1nn(Cc2ccc(-c3nc(C(F)(F)F)cn3C)cc2)c2nc(-c3ccccc3C(C)C)ncc12 [Example 25] | < 25 | < 25 | < 10 | < 10
23 | COc1ncnc(C2CC2)c1-c1ncc2ccn(Cc3ccc(-c4nc(C(F)(F)F)cn4C)cc3)c2n1 [Example 201, 2-(4-cyclopropyl-6-methoxypyrimidin-5-yl)-7-(4-(1-methyl-4-(trifluoromethyl)-1H-imidazol-2-yl)benzyl)-7H-pyrrolo[2,3-d]pyrimidine] | < 25 | < 25 | > 10 | < 10
24 | COc1ncnc(C2CC2)c1-c1ncc2cnn(Cc3ccc(-n4nc(C(F)(F)F)cc4C#N)cc3)c2n1 [Example 71] | > 25 | > 25 | < 10 | < 10
25 | CSc1cccc(C)c1-c1ncc2cnn(Cc3ccc(-c4nc(C(F)(F)F)cn4C)cc3)c2n1 [Example 21] | < 25 | < 25 | < 10 | < 10
26 | CCn1cc(C(F)(F)F)nc1-c1ccc(Cn2ncc3cnc(-c4c(C5CC5)cnn4CC)nc32)cc1 [Example 68] | < 25 | < 25 | < 10 | < 10
27 | COc1ncnc(C2CC2)c1-c1ncc2cnn(Cc3ccc(-c4nc(C(F)(F)F)c(Br)n4C)cc3)c2n1 [Example 163] | > 25 | > 25 | < 10 | < 10
28 | COc1ncnc(C2CC2)c1-c1ncc2cnn(Cc3ccc(-c4nc(C(F)(F)F)n(C)n4)cc3)c2n1 [Example 85] | > 25 | > 25 | < 10 | < 10
